Source: US12595248B2, “PRMT5 inhibitors” (Merck Sharp & Dohme LLC, priority 2019, dated 2026)
pEC50: −log10 of the molar value. Like-named read-outs stand apart in the source and are kept apart here.

How the values were obtained:
[1] = biological target: T1, PRMT5-MEP50 enzyme complex (Homo sapiens, UniProt O14744); assay: PRMT5-MEP50 Enzyme Methylation Assay (Version B); type: biochemical
T1 construct: Full-length (FL)-PRMT5-MEP50 enzyme complex (recombinant proteins from baculovirus-transfected Sf21 cells: FL-PRMT5; MW=73837 kDa and FL-MEP50; MW=38614); made in house; host or cells: baculovirus-transfected Sf21 cells
Description: PRMT5-MEP50 Enzyme Methylation Assay (Version B)
PRMT5-MEP50 biochemical assay is a direct measurement of the methylation activity of the enzyme complex on a short peptide substrate derived from the N-terminus of H4 histone. Methylation experiment was performed with recombinant PRMT5-MEP50 protein complex. The assessment of inhibitory effect (EC50) of small molecules was measured by the effectiveness of the compounds to inhibit this reaction.
In this assay, the potency (EC50) of each compound was determined from a twenty-point (1:2 serial dilution; top compound concentration of 100000 nM) titration curve using the following outlined procedure. To each well of a white ProxiPlus 384 well-plate, 100 nL of compound (1% DMSO in final assay volume of 10 μL) was dispensed, followed by the addition of 8 μL of 1× assay buffer (50 mM Bicine pH 8.0, 1 mM DTT, 0.004% Tween20, 0.01% BSA) containing 0.625 nM of Full-length (FL)-PRMT5-MEP50 enzyme complex (recombinant proteins from baculovirus-transfected Sf21 cells: FL-PRMT5; MW=[…] and FL-MEP50; MW=38614). Plates were sealed and placed in a 37° C. humidified chamber for 30 minutes pre-incubation with compounds. Subsequently, each reaction was initiated by the addition of 2 μL 1× assay buffer containing 375 nM biotinylated H4R3 (MeI) peptide, and 75 μM S-(5′-Adenosyl)-L-Methionine Chloride (SAM). The final reaction in each well of 10 μL consists of 0.5 nM PRMT5-MEP50, 75 nM biotinylated-peptide, and 15 μM SAM. Methylation reactions were allowed to proceed for 150 minutes in a sealed plate at 37° C. Reactions were immediately quenched by the addition of 1 μL of 10% formic acid. Plates were then frozen and shipped to SAMDI™ Tech Inc. to determine the percent conversion from […]. Dose-response curves were generated by plotting percent effect (% product conversion; Y-axis) vs. Log 10 compound concentrations (X-axis). EC50 values were determined by non-linear regression according to models for either sigmoidal (4 parameters) or biphasic (7 parameters) dose-response curves.

PRMT5 = biological target: T2, PRMT5 (Homo sapiens, UniProt O14744); assay: PRMT5 Cell Target Engagement (TE) Assay; type: cell-based; details: MCF-7 cells, treated for 3 days, symmetric dimethylation of arginine (SDMA) by high content imaging
T2 construct: seeded with 4000 MCF-7 cells in 30 μl media; endogenous in cells; host or cells: MCF-7 cells
Excerpt: PRMT5 Cell Target Engagement (TE) Assay
The PRMT5 TE assay is a biomarker assay for identifying compounds that inhibit symmetric dimethylation of arginine (SDMA) of PRMT5 substrates. The following substrates have been reported for PRMT5: histone H2A and H4 R3, Histone H3 R2, Histone H3 R8, spliceosome Sm proteins, ribosomal protein RPS10, p53, FEN1, nucleoplasmin, nucleolin, EGFR and EBNA. The assay focuses on detecting symmetrically dimethylated nuclear proteins using high content imaging technology. Detection of the expression of symmetrically dimethylated nuclear proteins is through a mixture of primary rabbit monoclonal antibodies to SDMA (CST 13222), which in turn recognized by an Alexafluor 488 dye-conjugated anti-rabbit IgG secondary antibody. The IN Cell Analyzer 2200 or Opera-Phenix measures nuclear Alexafluor 488 fluorescent dye intensity that is directly related to the level of expression of symmetrically dimethylated nuclear proteins at the single cell level. Nuclear AF488 dye intensities are compared to the mean value for DMSO treated cells (MIN) to report percent of inhibition for each compound-treated well.
In this assay, the cell potency (EC50) of each compound was determined from a ten point (1:3 serial dilution; top compound concentration of 10000 nM) titration curve using the following outlined procedure. Each well of a BD falcon collagen coated black/clear bottom 384-well plate was seeded with 4000 MCF-7 cells in 30 μl media and allowed to attach for 5 h. Media is ATCC-formulated Eagle's Minimum Essential Medium, Catalog No. 30-2003. To make the complete growth medium, the following components were added to the base medium: 0.01 mg/mL human recombinant insulin; fetal bovine serum to a final concentration of 10%. Additional 30 μl of media containing 2× compounds were added to each well. Cells were treated for 3 days in 37° C. CO2 incubator. On day 3, cells were fixed with Cytofix, permeabilized with 0.4% Triton-X-100/Cytofix, and washed with D-PBS without Ca/Mg. Cells were blocked with Licor Odessey blocking reagent for 1 h at room temperature, followed by incubation with anti-SDMA (1:1000) antibody at 4° C. overnight. 1° antibody was removed, followed by three washings with DPBS without Ca/Mg and 0.05% Tween20. Hoechst (5 μg/mL), Cell Mask deep stain (1:2000) and Alexa488-conjugated goat anti-rabbit IgG (2 μg/mL) was added for 1 h at room temperature. A final washing step (three washes) was performed before sealing plate for imaging on In Cell Analyzer 2200 or Opera-Phenix. Images from analyzer were uploaded to Columbus (at WP or BOS) for image analysis. IC50 values were determined by 4 parameters robust fit of percent fluorescence units vs. (Log10) compound concentrations.

[2] = first of two EC50s: 7 parameters biphasic model, read-out: Enzyme Methylation Assay Version B (EC50_1)
[3] = second of two EC50s: 7 parameters biphasic model, read-out: Enzyme Methylation Assay Version B (EC50_2)

T1 sequence (O14744 whole entry): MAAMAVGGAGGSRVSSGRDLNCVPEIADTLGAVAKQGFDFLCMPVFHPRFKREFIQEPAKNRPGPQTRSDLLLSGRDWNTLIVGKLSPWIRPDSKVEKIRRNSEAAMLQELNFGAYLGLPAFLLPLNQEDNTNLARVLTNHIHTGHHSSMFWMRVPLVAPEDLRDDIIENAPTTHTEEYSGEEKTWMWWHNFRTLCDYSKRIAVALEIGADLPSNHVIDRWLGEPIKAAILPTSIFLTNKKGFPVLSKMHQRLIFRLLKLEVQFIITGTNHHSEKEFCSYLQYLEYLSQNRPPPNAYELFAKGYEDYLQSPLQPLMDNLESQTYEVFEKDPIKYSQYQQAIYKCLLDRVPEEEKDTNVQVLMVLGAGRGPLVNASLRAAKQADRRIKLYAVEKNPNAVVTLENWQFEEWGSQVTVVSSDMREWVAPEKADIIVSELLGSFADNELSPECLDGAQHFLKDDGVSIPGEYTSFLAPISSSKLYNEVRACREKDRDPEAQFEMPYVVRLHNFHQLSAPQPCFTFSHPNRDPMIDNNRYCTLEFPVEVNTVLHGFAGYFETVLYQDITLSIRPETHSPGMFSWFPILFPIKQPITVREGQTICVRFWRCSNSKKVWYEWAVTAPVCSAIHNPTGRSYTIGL
T1 sequence (Q9BQA1 whole entry partner): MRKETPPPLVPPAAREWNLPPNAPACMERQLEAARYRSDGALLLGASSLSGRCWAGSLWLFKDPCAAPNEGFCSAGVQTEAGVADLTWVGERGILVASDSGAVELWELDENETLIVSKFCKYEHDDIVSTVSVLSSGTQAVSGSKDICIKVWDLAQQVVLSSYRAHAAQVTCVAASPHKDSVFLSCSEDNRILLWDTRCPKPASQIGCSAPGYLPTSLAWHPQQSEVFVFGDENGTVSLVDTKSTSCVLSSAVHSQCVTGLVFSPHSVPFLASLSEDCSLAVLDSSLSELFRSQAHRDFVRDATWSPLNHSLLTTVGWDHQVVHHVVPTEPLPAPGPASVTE
T2 sequence (O14744 whole entry): as the sequence (O14744 whole entry) above
T2 sequence (Q9BQA1 whole entry partner): as the sequence (Q9BQA1 whole entry partner) above

| SMILES | pEC50 [1, 2] | pEC50 [1, 3] | pEC50 (PRMT5) | pEC50 ([1]; only one EC50 shown: 4 parameters single site sigmoidal model, 30 min pre-incubation, read-out: Enzyme Methylation Assay Version B (EC50)) |
| --- | --- | --- | --- | --- |
| CC(=O)N1CCC(Nc2cc(C(=O)N3CCC(N4Cc5ccccc5C(F)(F)C4)C(O)C3)c(Cl)cn2)CC1 (single isomer, unassigned) [Example 25, l-(4-((5-chloro-4-(-4-(4,4-difluoro-3,4-dihydroisoquinolin-2(1H)-yl)-3-hydroxypiperidine-1-carbonyl)pyridin-2-yl)amino)piperidin-1-yl)ethan-1-one] | 6.08 | 4.47 | < 5.00 | – |
| CCOC(=O)N1CCC(Nc2cc(C(=O)N3CC[C@H](N4CCc5ccccc5C4)[C@@H](O)C3)c(F)cn2)CC1 [Example 106, ethyl 4-((4-((3S,4S)-4-(3,4-dihydroisoquinolin-2(1H)-yl)-3-hydroxypiperidine-1-carbonyl)-5-fluoropyridin-2-yl)amino)piperidine-1-carboxylate] | 8.72 | 6.30 | 8.21 | – |
| O=C(c1cn2c(n1)CCC(C(F)(F)F)C2)N1CC[C@H](N2CCc3ccccc3C2)[C@@H](O)C1 (single isomer, unassigned) [Example 82] | ~8.10 | 5.21 | 7.00 | – |
| CC1OC(=O)Nc2cc(C(=O)N3CC[C@@H](N4CCc5ccccc5C4)[C@H](O)C3)ccc21 (single isomer, unassigned) [Example 93] | ~7.74 | 4.93 | 6.74 | – |
| O=C(c1ccc(OCC(F)(F)F)nc1)N1CC[C@@H](N2CCc3ccccc3C2)[C@H](O)C1 [Example 44, ((3R,4R)-4-(3,4-dihydroisoquinolin-2(1H)-yl)-3-hydroxypiperidin-1-yl)(6-(2,2,2-trifluoroethoxy)pyridin-3-yl)methanone] | ~6.51 | < 4.00 | < 5.00 | – |
| COc1cnc(NC2CCN(C(C)=O)CC2)cc1C(=O)N1CC[C@H](N2CCc3ccccc3C2)[C@@H](O)C1 [Example 88, 1-(4-((4-((3S,4S)-4-(3,4-dihydroisoquinolin-2(1H)-yl)-3-hydroxypiperidine-1-carbonyl)-5-methoxypyridin-2-yl)amino)piperidin-1-yl)ethan-1-one] | 8.03 | 5.69 | 7.85 | – |
| CC(=O)N1CCC(Nc2cc(C(=O)N3CC[C@H](N4CCc5ccccc5C4)[C@@H](O)C3)c(F)cn2)C(F)(F)C1 (single isomer, unassigned) [Example 86] | 8.28 | 5.43 | 8.36 | – |
| CC1OC(=O)Nc2cc(C(=O)N3CC[C@H](N4CCc5ccccc5C4)[C@@H](O)C3)ccc21 (single isomer, unassigned) [Example 91] | 6.90 | 4.15 | 5.12 | – |
| CC1OC(=O)Nc2cc(C(=O)N3CC[C@H](N4CCc5ccccc5C4)[C@@H](O)C3)c(F)cc21 (single isomer, unassigned) [Example 99] | 8.09 | 5.06 | 6.88 | – |
| O=C(c1ccc(-c2ncnn2C2CC2)cc1)N1CC[C@@H](N2CCc3ccccc3C2)[C@H](O)C1 [Example 61, (4-(1-cyclopropyl-1H-1,2,4-triazol-5-yl)phenyl)((3R,4R)-4-(3,4-dihydroisoquinolin-2(1H)-yl)-3-hydroxypiperidin-1-yl)methanone] | – | – | < 5.00 | 5.59 |
| O=C(c1cn2cc(Br)ccc2n1)N1CC[C@@H](N2CCc3ccccc3C2)[C@H](O)C1 (single isomer, unassigned) [Example 2] | 7.89 | 5.23 | 6.29 | – |
| CCC1Oc2ccc(C(=O)N3CC[C@@H](N4CCc5ccccc5C4)[C@H](O)C3)cc2NC1=O (single isomer, unassigned) [Example 13] | ~7.85 | 4.75 | 6.19 | – |
| O=C(c1ccc(OCC(F)(F)F)nc1)N1CC[C@H](N2CCc3ccccc3C2)[C@@H](O)C1 [Example 43, ((3S,4S)-4-(3,4-dihydroisoquinolin-2(1H)-yl)-3-hydroxypiperidin-1-yl)(6-(2,2,2-trifluoroethoxy)pyridin-3-yl)methanone] | 8.43 | 5.49 | 6.36 | – |
